# Laboratory results published in the supplement of paper PMC10307832.
# Assays:
# Assay in all cases: relative viability (nuclei count vs DMSO), 5 days (fraction); higher = more cells survive
# [1] = compound: CCN(CC)CCNC(=O)c1c(C)[nH]c(/C=C2\C(=O)Nc3ccc(F)cc32)c1C [Sunitinib] + C[C@]1(O)C[C@@H](c2nc(-c3ccc4ccc(-c5ccccc5)nc4c3)c3c(N)nccn32)C1 [Linsitinib] (partner 1 µM)
# Outline: (§1)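 Medians of duplicate plates are given as relative viability. That measure is the nuclei count in treated wells divided by the count in vehicle wells. Counts were taken on 4× images of lung cancer cell lines in 1536-well plates, 5 days after pin-tool dosing the day after seeding with one drug alone or a fixed anchor-drug dose plus five library-drug doses (not always all listed) in √10 steps.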
# [2] = compound: CCN(CC)CCNC(=O)c1c(C)[nH]c(/C=C2\C(=O)Nc3ccc(F)cc32)c1C [Sunitinib] + COc1cccc2cc(-c3nc([C@H]4CC[C@H](C(=O)O)CC4)n4ncnc(N)c34)[nH]c12 [OSI-027] (partner 0.5 µM)
# Outline: as §1
# [3] = compound: CCN(CC)CCNC(=O)c1c(C)[nH]c(/C=C2\C(=O)Nc3ccc(F)cc32)c1C [Sunitinib] + CC(=O)Nc1cccc(-n2c(=O)n(C3CC3)c(=O)c3c(Nc4ccc(I)cc4F)n(C)c(=O)c(C)c32)c1 [Trametinib] (partner 0.02 µM)
# Outline: as §1
# [4] = compound: CCN(CC)CCNC(=O)c1c(C)[nH]c(/C=C2\C(=O)Nc3ccc(F)cc32)c1C [Sunitinib] + CS(=O)(=O)CCNCc1ccc(-c2ccc3ncnc(Nc4ccc(OCc5cccc(F)c5)c(Cl)c4)c3c2)o1 [Lapatinib] (partner 2 µM)
# Outline: as §1
Cell Line,relative viability ([1]; first compound 0.02 µM),relative viability ([1]; first compound 0.06325 µM),relative viability ([1]; first compound 0.6325 µM),relative viability ([1]; first compound 2 µM),relative viability ([2]; first compound 0.02 µM),relative viability ([2]; first compound 0.06325 µM),relative viability ([2]; first compound 0.2 µM),relative viability ([2]; first compound 0.6325 µM),relative viability ([2]; first compound 2 µM),relative viability ([3]; first compound 0.02 µM),relative viability ([3]; first compound 0.06325 µM),relative viability ([3]; first compound 0.2 µM),relative viability ([3]; first compound 0.6325 µM),relative viability ([3]; first compound 2 µM),relative viability ([4]; first compound 0.02 µM),relative viability ([4]; first compound 0.06325 µM),relative viability ([4]; first compound 0.6325 µM),relative viability ([1]; first compound 0.2 µM),relative viability ([4]; first compound 0.2 µM),relative viability ([4]; first compound 2 µM)
LCLC-97TM1,0.176,0.197,0.213,0.191,0.553,0.59,0.598,0.48,0.473,0.197,0.215,0.206,0.207,0.205,1.06,0.81,0.924,–,–,–
LK-2,0.504,0.516,0.712,0.637,0.175,0.257,0.189,0.2,0.194,0.498,0.809,0.858,0.747,0.964,0.773,–,0.939,0.658,1.15,0.866
LOU-NH91,–,0.983,0.95,0.87,0.778,0.74,0.772,0.73,0.742,0.791,0.811,0.844,0.823,0.787,0.732,0.839,0.816,0.959,0.828,0.764
LU99A,0.455,0.574,0.652,0.474,0.289,0.297,0.287,0.329,0.317,0.477,0.562,0.554,0.552,0.424,0.869,1.12,1.14,0.602,0.925,1.01
LXF-289,0.947,0.978,0.988,–,0.759,0.964,0.863,0.913,0.961,0.621,0.714,0.679,0.728,0.689,0.903,–,0.984,1.02,0.948,–
NCI-H23,0.552,0.6,0.674,0.554,0.57,0.749,0.675,0.803,0.469,0.345,0.348,0.334,0.391,0.351,1.1,1.42,1.36,0.605,1.44,1.08
NCI-H322M,0.871,0.969,0.942,0.754,0.53,0.582,0.656,0.624,0.549,0.536,0.516,0.554,0.477,0.525,0.594,0.649,0.655,0.985,0.583,0.633
NCI-H358,0.718,0.685,0.592,0.447,0.685,0.814,0.878,0.691,0.38,0.137,0.143,0.138,0.127,0.14,0.421,0.6,0.514,0.863,0.457,0.377
NCI-H460,0.662,–,0.927,0.699,0.593,0.717,0.78,0.768,0.467,0.104,0.185,0.226,0.287,0.191,0.85,–,1.08,0.95,1.3,0.927
NCI-H520,0.86,1.15,0.975,1.01,0.249,0.286,0.321,0.292,0.3,0.657,0.813,0.727,0.772,0.601,0.786,–,0.916,0.911,0.964,–
NCI-H596,1,1.02,1.14,0.911,0.731,0.799,0.787,0.699,0.552,0.762,0.86,0.723,–,1.02,0.987,1.14,1.19,1.21,1.22,1.08
NCI-H647,–,1.23,0.991,0.969,0.631,0.725,0.562,0.821,0.575,0.367,0.479,0.547,0.426,0.408,0.939,1.26,1.13,1.28,1.19,0.913
NCI-H650,0.9,0.912,–,1.08,0.535,0.553,0.524,0.586,0.514,0.917,1.04,1.16,0.988,1.01,1.09,1.33,0.925,1.09,0.807,0.964
NCI-H661,0.488,0.513,0.572,0.598,0.646,0.785,0.801,0.767,0.704,0.513,0.597,0.703,0.63,0.649,0.433,0.453,0.582,0.496,0.527,0.448
NCI-H727,0.146,0.363,0.311,0.292,0.717,0.574,0.757,0.687,0.631,0.409,0.412,0.412,0.396,0.367,0.88,0.887,0.937,0.239,1.36,0.781
NCI-H838,0.916,0.987,1.07,0.85,0.386,0.358,0.423,0.319,0.317,0.473,0.558,0.647,0.534,0.489,0.885,1.38,1.09,1.06,1.22,0.894
